Data taken from patent publication US9468670B2, “Melatonin-based treatment and diagnosis of bile duct disease” (Texas A&M University System, priority 2011, dated 2016).
Marks after values point to notes of the source that are not given here.

Experiments:
large cholangiocytes = assay: Secretin-stimulated cAMP levels (RIA) in purified large cholangiocytes from treated BDL rats; assay type: in vivo, rat; conditions: cholangiocytes from BDL rats treated with melatonin for 1 week; secretin 100 nM, 5 minutes
Procedure: The effect of secretin on cAMP levels was evaluated in purified large cholangiocytes and bile and bicarbonate secretion was evaluated in bile fistula rats, two functional indices of cholangiocyte hyperplasia (Alpini et al., 1998; Alpini et al., 1988; LeSage et al., 1999). Following purification, large cholangiocytes (1×10^5 cells) were incubated for 1 hour at 37° C. (Ishii et al., 1989) before stimulation with 0.2% bovine serum albumin (BSA) or secretin (100 nM) for 5 minutes at room temperature (Kato et al., 1992; LeSage et al., 1999; LeSage et al., 2004) before evaluation of cAMP levels by RIA (Alpini et al., 1998; Kato et al., 1992; LeSage et al., 1999; LeSage et al., 2004). For the studies of biliary physiology, after anesthesia, rats were surgically prepared for bile collection as described by us (Alpini et al., 1988). When steady-state bile flow was reached (60-70 minutes from the intravenous infusion of Krebs-Ringer-Henseleit solution, KRH), the animals were infused with secretin (100 nM) (LeSage et al., 1999; LeSage et al., 2004) for 30 minutes followed by IV infusion of KRH for 30 minutes (LeSage et al., 1999; LeSage et al., 2004). Bicarbonate concentration in bile was determined by an ABL™ 520 Blood Gas System (Radiometer Medical A/S, Copenhagen, Denmark).

[1] = rat, in vivo, 1 mg/kg/day
Procedure: (§1) In separate experiments, normal rats treated with Vivo-Morpholino sequences of AANAT (5′-[…] (SEQ ID NO:1), to reduce the biliary expression of AANAT) or Morpholino mismatched (5′-[…] (SEQ ID NO:2)) (Gene Tools LCC) (1 mg/Kg BW/day) for 1 week via an implanted portal vein catheter. Serum, liver tissue, cholangiocytes, kidney, spleen, small intestine, stomach and heart were collected. Since our goal was to knock-down AANAT expression in the liver without inhibiting AANAT expression in other organs, we used a lower dose (1 mg/Kg/day) of Vivo-Morpholino than that described in the original study (3.0 mg/kg/day (Arora et al., 2002). This approach minimizes the amount of Vivo-Morpholino that circulates outside of the liver after slow infusion into the portal vein. See below for the surgical procedure for the implantation of the portal vein catheter by which AANAT Vivo-Morpholino or Morpholino mismatched was administered.
Biliary proliferation was determined by measurement of the percentage of PCNA-positive cholangiocytes by immunohistochemistry, and intrahepatic bile duct mass (IBDM) by immunohistochemistry for CK-19 (Mancinelli et al., 2010). Biliary apoptosis was evaluated by semiquantitative terminal deoxynucleotidyltransferase biotin-dUTP nick-end labeling (TUNEL) kit (Chemicon International, Inc., Temecula, Calif.) (Mancinelli et al., 2010). IBDM was determined as the area occupied by CK-19 positive-bile duct/total area×100 (Mancinelli et al., 2010). The morphological changes/damage in liver, spleen, kidney, heart, stomach, and small intestine were evaluated from AANAT Vivo-Morpholino- or mismatch-treated rats by H&E staining. The serum levels of the transaminases, glutamate pyruvate transaminases (SGPT) and glutamic oxaloacetic transaminase (SGOT), alkaline phosphatase (ALP) and total bilirubin were evaluated using a Dimension RxL Max Integrated Chemistry system (Dade Behring Inc., Deerfield Ill.), Chemistry Department, Scott & White.

[2] = tested on: SR, CFTR, Cl−/HCO3− AE2, VEGF-A/C; assay: Expression of PCNA, SR, CFTR, Cl−/HCO3− AE2, VEGF-A/C in liver sections, liver tissue and cholangiocytes of Morpholino-treated rats; assay type: in vivo, rat; conditions: normal rats, 1 week
Procedure: as §1
By real-time PCR (Francis et al., 2008), the expression of PCNA, SR, CFTR, Cl^−/HCO3^− AE2, VEGF-A/C was evaluated in total RNA from: (i) cholangiocytes from normal rats, and BDL rats treated with melatonin; and (ii) liver tissue and cholangiocytes from rats treated with mismatch or AANAT Vivo-Morpholino for 1 week. A ΔΔCT analysis was obtained using normal cholangiocytes or normal total liver as control samples (Francis et al., 2008). The primers for rat PCNA, SR, CFTR, Cl^−/HCO3^− AE2, VEGF-A/C (SABiosciences) were designed according to the NCBI GenBank Accession numbers: NM_022381 (PCNA); NM_031115 (SR); NM_017048 (Cl^−/HCO3^− AE2); XM_001059206 (CFTR); NM_031836 (VEGF-A); and NM_053653 (VEGF-C). The percentage of cholangiocytes positive for SR, CFTR, Cl^−/HCO3^− AE2 and VEGF-A/C was evaluated in liver sections: when 0%-5% of bile ducts were positive a negative score was assigned; a +/−score was assigned when 6%-10% of ducts were positive; a +score was assigned when 11%-30% of bile ducts were positive (Glaser et al., 2009).

AANAT = biological target: T1, AANAT (Rattus norvegicus, UniProt Q64666); assay: Melatonin levels in serum and cholangiocyte supernatant (ELISA) of Morpholino-treated rats; assay type: in vivo; conditions: normal rats
T1 construct: the expression of AANAT in liver sections and cholangiocytes from the selected groups of animals; from tissue; host or cells: Male Fischer 344 rats: liver sections, total liver, isolated cholangiocytes, pineal gland, small intestine, serum
Procedure: In separate experiments, normal rats treated with Vivo-Morpholino sequences of AANAT (5'-[…] NO:1), to reduce the biliary expression of AANAT) or Morpholino mismatched (5'-[…] NO:2)) (Gene Tools LCC) (1 mg/Kg BW/day) for 1 week via an implanted portal vein catheter. Serum, liver tissue, cholangiocytes, kidney, spleen, small intestine, stomach and heart were collected. Since our goal was to knock-down AANAT expression in the liver without inhibiting AANAT expression in other organs, we used a lower dose (1 mg/Kg/day) of Vivo-Morpholino than that described in the original study (3.0 mg/kg/day (Arora et al., 2002). This approach minimizes the amount of Vivo-Morpholino that circulates outside of the liver after slow infusion into the portal vein. See below for the surgical procedure for the implantation of the portal vein catheter by which AANAT Vivo-Morpholino or Morpholino mismatched was administered. Melatonin levels in serum and medium of primary cultures of isolated cholangiocytes were determined by ELISA kits (Genway, San Diego, Calif.). Supernatants were obtained from cholangiocytes (1×10^7 cells/ml) that were incubated for 6 hours at 37° C. (Glaser et al., 2008).

T1 sequence (Q64666 whole entry): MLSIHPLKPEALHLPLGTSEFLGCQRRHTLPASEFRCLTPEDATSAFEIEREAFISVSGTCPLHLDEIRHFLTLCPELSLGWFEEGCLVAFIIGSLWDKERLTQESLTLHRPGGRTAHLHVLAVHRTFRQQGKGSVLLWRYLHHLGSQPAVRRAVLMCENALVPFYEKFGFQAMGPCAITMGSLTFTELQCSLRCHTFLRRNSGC

Row | Molecule | Effect of secretin on cAMP levels of large cholangiocytes (large cholangiocytes) | ALP [1] | SGOT [1] | SGPT [1] | Total bilirubin [1] | Immunoreactivity of cholangiocytes to CFTR [2] | Immunoreactivity of cholangiocytes to Cl−HCO3− AE2 [2] | Immunoreactivity of cholangiocytes to SR [2] | Immunoreactivity of cholangiocytes to VEGF-A [2] | Immunoreactivity of cholangiocytes to VEGF-C [2] | Melatonin supernatant (AANAT; cholangiocyte supernatant, 6 hours at 37° C., 1 mg/Kg BW/day for 1 week) | Melatonin serum (AANAT; 1 mg/Kg BW/day for 1 week via portal vein catheter)
1 | COc1ccc2[nH]cc(CCNC(C)=O)c2c1 [melatonin] | did not enhance | – | – | – | – | – | – | – | – | – | – | –
2 | AANAT Vivo-Morpholino: Vivo-Morpholino sequence of AANAT 5′-GTTCCCCAGCTTTGGAAGTGGTCCC (SEQ ID NO:1), to reduce the biliary expression of AANAT (all phosphorodiamidate morpholino (PMO); Vivo-Morpholino delivery moiety attached, position not given here, further chemistry not fully specified) | – | 230.2 ± 5.2 Units/L | 148.5 ± 22.5 Units/L | 72.25 ± 0.2 Units/L | <0.1 mg/L | + (a +score was assigned when 11%-30% of bile ducts were positive) | + (a +score was assigned when 11%-30% of bile ducts were positive) | + (a +score was assigned when 11%-30% of bile ducts were positive) | + (a +score was assigned when 11%-30% of bile ducts were positive) | + (a +score was assigned when 11%-30% of bile ducts were positive) | 3.2 ± 0.2^a pg/ml | 58.4 ± 8.7^a pg/ml
